This is an account of results in US6432383B1, “Method for administering insulin” (Generex Pharmaceuticals Incorporated, priority 2000, dated 2002).

This assay has as its system healthy non-diabetic human volunteers. Description: Blood glucose in fasted healthy non-diabetic volunteers, injected vs oral insulin (Example 1). It is filed as in vivo. On the set-up: unit not given here. To be noted: sub-cutaneous injection 10 units, avg of 5 fasted healthy volunteers. The method, then:
In one set of tests, five healthy non-diabetic human volunteers were tested with insulin, by injection. In another set of tests the volunteers were tested with insulin, taken orally. The volunteers fasted from midnight prior to the test, with no food being taken during the 4 hour study.
On the first day, the volunteers received 10 units insulin by injection (regular fast acting insulin, available from Eli Lilly). On the second day, the volunteers received 100 units (1 mL volume per drop, approximately 20 drops) of the above-prepared oral insulin (10 times the injection dose). In both tests, blood glucose levels were monitored every 15 minutes by Bayer's Glucometer Elite.

With insulin [regular fast acting insulin], the Blood glucose levels runs as follows: (0 min) 5.8; (15 min) 5.8; (30 min) 5.4; (60 min) 5.0; (75 min) 4.6; (90 min) 4.3. Also, the Blood glucose levels is, setting by setting: (120 min) 3.8; (150 min) 3.6; (180 min) 3.4; (210 min) 4.2; (240 min) 4.5.
